Results published in a melting point compilation (Tetko et al.).
Peptide text beside a SMILES is read from it.

Structure (SMILES)	melting point [°C]
O=C(NCCc1ncc(C(F)(F)F)cc1Cl)c1ccccc1C(F)(F)F	118
O=c1[nH]nc(S)n1C1CCCCC1	190 to 194
CN(C)S(F)(F)F	-78.7
COCCOC(=O)c1ccccc1C(=O)OCCOC	-45
CN1CCN(Cc2ccc(I)cc2)CC1	105 to 106
Cc1nc2ccccc2c(=O)n1-c1ccccc1Cl	126
CC(=O)OC1CCC2C3CCC4CC(C#Cc5ccccc5)(OC(C)=O)CCC4(C)C3CCC12C (stereo unspecified)	100 to 111
Cc1cc(C)c2c(c1)CC2(C)O (stereo unspecified)	58
O=S1(=O)CC=C(Cl)C1	90 to 92
OCCN1CCN(c2nc3ccc(Cl)cc3s2)CC1	128 to 130
CCN(CC)CCNC(=O)c1cc(Cl)c(N)cc1OC	146
CC(=O)OC1(C(C)=O)CCC2C3CCC4=CC(=O)CCC4(C)C3(F)C(O)CC21C (stereo unspecified)	268
O=C(O)C1NCCS1 (stereo unspecified)	182
CC(C)NC(=S)NN	96 to 97
CNC(=S)NCO	88
O=C(O)c1cn(C2CC2)c2cc(Cl)c(F)cc2c1=O	239 to 244
CCOC(=O)c1cnc2c(c(C)nn2C)c1Oc1cc(Cl)cc(Cl)c1	115 to 117
OCC(F)(F)C(F)(F)C(F)(F)C(F)(F)C(F)(F)C(F)(F)C(F)(F)C(F)(F)CO	132 to 137
CCCCCCCCCC1CCCCC1	-10
S=P(N1CC1)(N1CC1)N1CC1	54 to 57
CC(C)CCCCCO	-106

Structure (SMILES)	melting point [°C]
CCCCCCCCCCCCCC(C)C	-7
CC1(C)C(C(=O)OC(C#N)c2cccc(Oc3ccccc3)c2)C1C(Br)C(Br)(Br)Br (stereo unspecified)	143
ClC1=C(Cl)C2(Cl)C3C4C=CC(C4)C3C1(Cl)C2(Cl)Cl (stereo unspecified)	240
Cc1ccc(OCC(=O)NN)c2c1CCC2	145 to 156
N#Cc1scc2c1OCCO2	70
COC(=O)c1cncn1C	57
Cn1c(=O)c(C2=NNC(=O)C2=C2C(=O)Nc3ccccc32)c(O)c2ccccc21	279
O=C(O)c1ccc(C(F)(F)F)cc1C(F)(F)F	109 to 113
Oc1ccc(Cl)cc1Br	33
O=S(=O)(O)CS(=O)(=O)O	98
NCC(=O)N[C@@H](CCC(=O)O)C(=O)O (H-Gly-Glu-OH)	155 to 158
CC1(C)CCC(Cc2ccc(Cl)cc2)C1(O)Cn1cncn1 (stereo unspecified)	112
O=C(NCOC(=O)c1ccc(OCNC(=O)c2ccccc2)cc1)c1ccccc1	176 to 178
Cc1cc(Cl)cc(Cl)c1	26
Clc1ccc2ccccc2c1Cl	36
NS(=O)(=O)c1cc(F)c(Br)cc1F	165
O=C(O)C(c1ccccc1)C1CCCCC1 (stereo unspecified)	148 to 151
Oc1c(Br)c(Br)c(O)c(Br)c1Br	255 to 260
C=CCO	-129
NC(c1ccc(F)cc1)C(N)c1ccc(F)cc1 (stereo unspecified)	100 to 104
Cc1cc([N+](=O)[O-])cnc1Cl	78 to 80

Structure (SMILES)	melting point [°C]
CC(C)(C)OC(=O)N1CC(=O)C1	51
CN(C)c1ccc(-c2ccc(N(C)C)cc2)cc1	194
CCCCC1CO1 (stereo unspecified)	94
CCOP(=O)(OCC)Oc1c2cc(C(C)(C)C)cc1Cc1cc(C(C)(C)C)cc(c1O)Cc1cc(C(C)(C)C)cc(c1OP(=O)(OCC)OCC)Cc1cc(C(C)(C)C)cc(c1O)C2	203 to 205
CCOC(=O)Cc1nc(O)cs1	153 to 155
CCOC(=O)CCCCCCCCCCCCCCCCC(=O)OCC	54.5
c1ccc2cc3cc4ccccc4cc3cc2c1	357
CCOC(=O)c1cnc(N)nc1C	224 to 225
O=C(C1=NOC2C(=O)N(c3cc(Cl)ccc3Cl)C(=O)C12)c1cccs1 (stereo unspecified)	221
c1ccc(OCc2nnc3n2NC(c2ccco2)S3)cc1 (stereo unspecified)	102
O=C(C1=NOC2C(=O)N(c3ccccc3[N+](=O)[O-])C(=O)C12)c1ccc2ccccc2c1 (stereo unspecified)	176
COc1ccc(-n2nc(C(=O)c3cccs3)s/c2=N/C(=O)c2ccccc2)cc1	235
C(=C/c1ccco1)/c1ccc2cc3ccc(/C=C/c4ccco4)nc3cc2n1	272
CCC(=O)C(CC(C)N1CCOCC1)(c1ccccc1)c1ccccc1 (stereo unspecified)	75
OCN(CO)c1nc(N(CO)CO)nc(N(CO)CO)n1	137
O=c1oc2c(O)c(O)cc3c(=O)oc4c(O)c(O)cc1c4c23	450
CC(C)COC(=O)CCCCC(=O)OCC(C)C	-20
COc1cc2c(cc1OC)[C@@H](C(=O)c1ccc3c(c1OC)C=CC(C)(C)O3)CCO2	118
Nn1cnc2c(c(Br)nn2C2CCCCC2)c1=O	253 to 254
C=CCN=C=S	-80

Results, then the molecule that gave them:

melting point [°C]	Structure (SMILES)
69 to 71	Cn1ccc2c(CO)cccc21
115 to 116	COc1ccc(OC)c(S(=O)(=O)Cl)c1
86 to 88	CC(=O)c1sccc1N
128	CC(=O)c1ccc(I)s1
211	Cc1cc2c(cc1C)C(=O)c1ccccc1C2=O
33	CC(=O)c1ccc(C)c(F)c1
111	O=C(C=Cc1ccccc1)C=Cc1ccccc1
101 to 106	O=C(C[N+](=O)[O-])c1ccccc1
270 to 272	CCOC(=O)C(C#N)=C(N)c1cc2cc(Br)ccc2oc1=O
89	OC1OC2(CCCCC2)Cc2ccccc21 (stereo unspecified)
210	O=[N+]([O-])c1cccc(-c2nnc3n2NC(c2ccccc2O)S3)c1 (stereo unspecified)
138 to 140	Cn1nccc1-c1cccc(C(=O)O)c1
99	COc1ccc(Cl)cc1C(=O)O
-10	CC(C)Nc1ccccc1
360 to 362	O=c1c2ccccc2[nH]c2ccccc12
63 to 63.6	CC1=C(C#N)Cc2ccccc21
106	Cc1cc(CCN2CCN(c3cccc(Cl)c3)CC2)n[nH]1
102 to 103	N#Cc1ccc(-c2nccs2)cc1
112 to 113	Cc1nccn1-c1ccc(N)cc1
121	Nc1ccc(/C=C\c2ccc(N)cc2)cc1
129 to 131	Cc1nn(-c2ccccc2)c(N)c1C#N
118 to 121	NNC(=O)COc1ccccc1CSc1ccc(Cl)cc1
202 to 204	O=C(O)c1cccc2cc[nH]c12

melting point [°C]	Structure (SMILES)
266	CC(=O)Oc1c(-c2ccccc2)[nH]c2cc(N)c(/C=C/c3ccccc3)cc12
59 to 60	N#CCc1nc(-c2ccccc2)cs1
60	CC(=O)C(C(C)=O)C(c1ccc(C)o1)c1ccc(C)o1
59	Cc1cc(S(=O)(=O)Cl)ccc1Br
195 to 197	COc1ccc(C(=O)O)cc1C
57	Cc1ccc(Br)c(O)c1C(=O)O
119	N=C(Nc1ccccc1)c1ccccc1
50 to 51	Cc1ccc(S(=O)(=O)OCC#N)cc1
147 to 148	c1ccc(-c2cn3c(n2)SCC3)cc1
212 to 213	Cc1[nH]c2ccccc2c1C#N
21	CC(=O)c1ccc(C)cc1O
55	Fc1ccc(-c2ccno2)cc1
181	O=C(O)c1cccnc1Oc1ccccc1
275	N=c1oc2ccccc2cc1-c1nc2ccccc2c(=O)[nH]1
126	Cc1ccccc1N=Nc1c(N)ccc2ccccc12
116	NC(=O)c1cccc(F)c1F
208	CCCSc1ccc2[nH]c(NC(=O)OC)nc2c1
106	CCCCc1ccc(C(=O)O)cc1
37 to 41	OCc1ccccc1Cc1ccccc1
283	Cc1noc2c1c(=O)n(-c1ccccc1)c1ccccc21
36	O=C(Cl)C=Cc1ccccc1
13	CSc1ccc(S)cc1
109 to 114	CC(=O)c1ccc(-c2cccs2)s1

melting point [°C]	Structure (SMILES)
228 to 232	O=c1[nH]c2ccc(Br)cc2s1
87 to 88	COc1ccc(Br)cc1[N+](=O)[O-]
98.5	Nc1ccc2ccccc2c1N
220 to 225	CC1=NN(c2ccc([N+](=O)[O-])cc2)C(=O)C1
157	O=C(c1ccccc1)c1ccc(-c2ccc(Br)cc2)cc1
262	C1=NCC(c2ccc(C3CN=CC=N3)cc2)N=C1 (stereo unspecified)
184	Nc1nc(-c2ccc(Br)cc2)cs1
139	COc1cc(C/C(=N\O)C(=O)O)ccc1O
114	Cc1cc(C)c2c(=O)n3ccccc3cc2c1
111	COc1ccc([C@@H](O)[C@@H](CO)Oc2c(OC)cccc2OC)cc1OC
86	CSc1ccc(O)cc1
130 to 134	CSc1nc(N)cc(Cl)n1
73	Clc1ccc(-c2c(Cl)cc(Cl)c(Cl)c2Cl)c(Cl)c1
171	CCC(=O)OCN1C(=O)NC(c2ccccc2)(c2ccccc2)C1=O
84 to 86	Cn1ccc2cc(C=O)ccc21
259 to 260	CC1(C)OC(=O)C(=NNc2ccc(Br)cc2)C(=O)O1
50	CCOC(=O)CN(C(=O)CCl)c1c(CC)cccc1CC
167 to 169	NC(=O)c1ccc2c(c1)OCO2
78 to 81	CN(N)C(=O)c1cc(Cl)ccc1N
42	CCc1ccc(CCO)nc1
78 to 80	O=C(CBr)c1ccc2c(c1)OCCCO2
184 to 185	Nc1nccc(-c2cc(-c3cccc(C(F)(F)F)c3)no2)n1
118 to 120	CCOc1ccc(-c2nnc3n2NCS3)cc1
